Experimental data published in publication PMC7321408, “One-Pot Multicomponent Synthesis and Bioevaluation of Tetrahydroquinoline Derivatives as Potential Antioxidants, α-Amylase Enzyme Inhibitors, Anti-Cancerous and Anti-Inflammatory Agents” (Molecules, 2020).
Converted amounts (≈) assume the structure as drawn. “And” between values parts separate entries of the source, which are not always exact repeats. Identical values can stand only once. Like-named read-outs stand apart in the source and are kept apart here.

Tests used:
[1] = biological target: α-amylase enzyme; experiment: α-Amylase enzyme inhibitory assay; format: biochemical
Method: An in vitro α-amylase enzyme inhibitory assay was performed by the standard protocol. Four milligrams per 1 mL of sample was prepared in DMSO. In each well of a 96-well plate, synthetic compounds were added to a final concentration of 200 µg/mL. To this, 15 μL phosphate buffer, […] α-amylase enzyme and 40 μL starch solution were added stepwise. The microplate was incubated at 50 °C for 30 min. […] The formula used to calculate the percent enzyme inhibition is:% Enzyme inhibition = [(As − An) ÷ (Ab − An] × 100
As = sample’s absorbance; An = negative’s absorbance; Ab = blank’s absorbance

[2] = DPPH free radical scavenging assay; conditions: mean ± SEM, n = 3; for IC50 (DPPH radical scavenging): concentration to scavenge 50% of the DPPH radicals
Method: The % free radical scavenging activity (%FRSA) of the synthetic compounds was evaluated by the discoloration of an unstable DPPH reagent to the stable yellow-colored 2,2-diphenyl-1-picrylhydrazine molecule by accepting one electron from a donor antioxidant; the mechanism is shown in Scheme 2.
The % FRSA (free radical scavenging activity) of the synthetic compounds was determined by using the method of Tai et al. with slight modifications. The antioxidant potential was determined by detecting the capacity of the synthetic compounds to quench the DPPH free radicals. The synthetic compounds were taken in a 96-well plate at three-fold concentrations of 200 µg/mL, 66.6 µg/mL, 22.2 µg/mL and 7.4 µg/mL. DPPH free radicals were added to entire wells to make up the volume up to 200 µL. DMSO and ascorbic acid were taken as negative and positive controls, respectively. The absorbance was taken at 630nm using a microplate reader (ELx800 BioTek). The percentage of scavenging activity was calculated by the given formula:% scavenging activity = (1 − Abs/Abc) × 100
Abs = sample’s absorbance; Abc = control’s absorbance.

[3] = tested on: brine shrimp nauplii; experiment: Brine shrimp lethality bioassay; format: in vivo; conditions: 24 h, n = 3
Method: Brine shrimp eggs were hatched in a shallow rectangular plastic dish and filled with artificial seawater, which was prepared with a commercial salt mixture. In a 96-well plate, 150 µL of artificial seawater was added and 10 nauplii were added into this. Test compounds (400, 200, 100 and 50 µg/mL) were added into each well and the final volume was made up by adding the artificial seawater. The well plate was left uncovered under a lamp. The number of surviving shrimps were counted and recorded after 24 h. The test was repeated in triplicate. […] The percentage mortality (%M) was also calculated by dividing the number of dead nauplii by the total number and then multiplied by 100.

[4] = tested on: Hep-2C cells; experiment: MTT assay against Hep-2C cells; format: cell-based, Human; conditions: Homo sapiens, Hep2C, read-out: IC50 (Mean ± SEM) Hep-2C Cells
Method: Hep-2C cell line experiments were performed in the Immunology Lab of the National Institute of Health (NIH), Islamabad, Pakistan. Human cervix carcinoma cells Hep-2C (ATCC HB-8065) were cultured in Dulbecco’s modified Eagle’s medium (DMEM), comprising 10% fetal calf serum (10% FCS) and supplemented with 2 mM L-glutamine, 100 U/mL penicillin, 100 µg/mL streptomycin and 1 mM Na pyruvate, at 37 °C in a humidified 5% CO2 incubator.
The tetrazolium dye 3-(4, 5-dimethyl thiazolyl-2)-2, 5-diphenyltetrazolium bromide (MTT) was used to assess the cytotoxic potential of the test compounds. In living cells, MTT is reduced into its insoluble purple product formazan, which is measured spectrophotometrically.
Hep-2C cells, in a density of 1 × 10^6 (> 90% cell viability), were cultured in a 96-well plate and treated with different concentrations of the test compounds for 24, 48 and 72 h. Ten microliters of MTT (1 mg per mL) were added per well followed by incubation for 4 h. Insoluble formazan crystals were dissolved by adding 100 µL of DMSO. Cells were then incubated for another 2 h. Absorbance was measured at 570 nm by a microplate reader. Untreated Hep-2C cells were taken as controls and DMSO as a negative. % cell viability = (abssample − absblank)/(abscontrol − absblank) × 100

[5] = MTT cytotoxicity against raw macrophages; format: cell-based, albino rats; conditions: albino, rat; for viability at 24 h, 1 µM / viability at 24 h, 10 µM / viability at 24 h, 50 µM / viability at 24 h, 100 µM: peritoneal macrophages (raw macrophages), raw macrophages, MTT, read-out: % Cell Viability; for IC50 at 24 h: primary peritoneal macrophages, mean ± SEM, n = 3
Method: The % cell viability of the synthetic library was evaluated in vitro by measuring the mitochondrial dehydrogenase activity (MTT test) on raw macrophages.
The cytotoxic potential was assessed by using an MTT 3-(4,5-dimethyl thiazole-2-yl)-2,5- diphenyl tetrazolium bromide assay. Briefly, macrophages were extracted from the peritoneal cavity of albino rats and plated at a density of 1 × 10^6 per well in a 96-well plate and incubated in a 5% CO2 incubator at 37 °C for 24 h. The cells were treated with various concentrations of the test compounds (100 µM, 50 µM, 10 µM and 1 µM) or vehicle alone. The test compounds were first dissolved in DMSO to make a 100 mM stock solution and then further dilutions were made from this stock solution. After 24 h of incubation, 20 µL of MTT (1 mg/mL in normal saline) was added into each well and incubated under the same conditions for 2 h. Mitochondrial succinate dehydrogenase converted MTT in live cells into purple formazan crystals. The formazan crystals were then solubilized in 100 µL DMSO, and the absorbance was measured at 570 nm. The % cell viability was calculated by the following formula; % cell viability = (abssample − absblank)/(abscontrol − absblank) × 100

[6] = tested on: NO generated by LPS-induced macrophages; experiment: Nitric oxide assay (Griess) in LPS-induced macrophages; format: cell-based, murine; conditions: Mus musculus, Macrophage, 18 h, LPS 1 µg/mL, read-out: % NO Production (Mean ± SEM)
Method: A Griess reagent, a spectrophotometric determination of nitrite level, was carried out to measure the nitrite level in the conditioned medium of macrophages treated with lipopolysaccharide (LPS). Sodium nitrite (NaNO2) was used as a standard compound for the standard curve (Figure 8). The NO concentrations were obtained using the standard curve equation: y = 0.0083x + 0.0017, R^2 = 0.9999, where y is the absorbance at 540 nm and x is the NO concentration in µM. The inhibitory activity of the tested compounds towards NO generated by LPS-induced macrophages was obtained from the calculated value of x.
The anti-inflammatory effect of the synthesized compounds in murine macrophages was evaluated by using the Griess reaction method, described previously. In brief, 1 × 10^6 were plated in a 96-well plate and incubated in a 5% CO2 incubator at 37 °C for 24 h, pre-treated with different concentrations (100 µM, 50 µM, 10 µM and 1 µM) of synthetic compounds for another 2 h and challenged with LPS (1 µg/mL) for an additional 18 h. Equal volumes of Griess reagent (1% sulphanilamide in 50% phosphoric acid and 0.1% naphthyl ethylenediamine dihydrochloride in distilled water and vortexed) and culture medium were mixed and the absorbance was taken at 540 nm. Lipopolysaccharide (LPS) was taken as a blank and piroxicam was taken as a positive control. A t-test was applied to determine the significance of the results.

[7] = Phosphomolybdenum-based total antioxidant capacity (TAC)
Method: In the presence of an antioxidant, the phosphomolybdate ion gets reduced and a green phosphate–molybdate complex is formed, which is analyzed spectrophotometrically.
The total antioxidant capacity was determined by using the phosphomolybdenum-based method. The method is based on the reduction of Mo (VI) to Mo (V), leading to the formation of a green-colored phosphate–molybdenum complex that gives absorption at 630 nm. In 96-well plates, 20 µL of the sample was added with 180 µL TAC reagents in it and incubated at 95 °C for 90 min in a water bath and cooled at room temperature. The results were calculated as µg AAE/mg.

[8] = Total reducing power (TRP) assay
Method: A TRP assay was carried out to evaluate the reducing potential of synthetic compounds. The method implicates reductones. These reductones are species with antioxidant potential that is believed to be due to their proton-donating capacity. […] The maximum value of reducing power was 104.7 ± 1.9 µg/AAE for SF5, followed by 103.18 ± 2.4 µg/AAE for SF7 and 84.57 ± 1.9 µg/AAE for SF12 (Figure 3 and Figure 4 (standard curve)).
The assay is based on the reduction of Fe^+3 to Fe^+2. The method described by Khan et al. was used with slight modifications. One hundred microliters of test samples (4 mg/mL DMSO) were taken in an Eppendrof tube and 200 μL of phosphate buffer (0.2 mol/L, pH 6.6) and 250 µL of 1% potassium ferricyanide (K3Fe CN)6) were added. This was allowed to incubate at 50 °C for 20 min. Later on, 200 μL of 10% trichloroacetic acid (TCA) was added to the mixture. The mixture was centrifuged at 3000 rpm at room temperature for 10 min. After centrifugation, 150 µL of supernatant were transferred to microplate with FeCl3 (50 μL, 0.1%) and the absorbance was taken at 630 nm. The results were calculated as µg AAE/mg.

Row | SMILES | IC50 (α-amylase) [1] | % DPPH Scavenging Activity ([2]; 7.4 µg/mL) | % DPPH Scavenging Activity ([2]; 22.22 µg/mL) | % DPPH Scavenging Activity ([2]; 66.66 µg/mL) | % DPPH Scavenging Activity ([2]; 200 µg/mL) | IC50 (DPPH radical scavenging) [2] | LD50 ± SEM (brine shrimp lethality) [3] | viability at 24 h, 1 µM [5] | viability at 24 h, 10 µM [5] | viability at 24 h, 50 µM [5] | viability at 24 h, 100 µM [5] | IC50 at 24 h [5] | activity at 1 µM [6] | activity at 10 µM [6] | activity at 50 µM [6] | activity at 100 µM [6] | Total antioxidant capacity (TAC) [7] | Total reducing power (TRP) [8] | further results
1 | Clc1cccc(NCN2CCCc3ccccc32)c1 [SF8, 3-Chloro-N-((3,4-dihydroquinolin-1(2H)-yl)methyl) aniline] | 27.39 ± 1.43 µg/mL (≈ 100 µM) | 27.98 ± 0.24% | 50.17 ± 0.32% | 52.12 ± 0.36% | 62.35 ± 0.14% | 29.19 ± 0.25 µg/mL (≈ 107 µM) | 123.4 ± 1.87 µg/mL | 97 ± 1.04% | 83 ± 0.78% | 68 ± 0.79% | 52 ± 1% | 21.2 ± 0.33 µM | 39.4 ± 0.48% | 29.4 ± 0.44% | 24.1 ± 0.41% | 15 ± 0.33% |  |  | IC50 ([4]; 24 h): 20.2 ± 1.07 µM; IC50 ([4]; 48 h): 15.7 ± 1.08 µM; IC50 ([4]; 72 h): 11.9 ± 1.04 µM
2 | Brc1ccc(NCN2CCCc3ccccc32)cc1 [SF9, 4-Bromo-N-((3,4-dihydroquinolin-1(2H)-yl)methyl) aniline] | 18.55 ± 0.89 µg/mL (≈ 58.5 µM) | 7.64 ± 0.26% | 19.35 ± 0.11% | 50.28 ± 0.22% | 67.46 ± 0.14% | 50.76 ± 0.37 µg/mL (≈ 160 µM) | 139 ± 0.87 µg/mL | 98 ± 0.87% | 91 ± 0.91% | 84 ± 1.21% | 82 ± 0.96% | 14.2 ± 0.26 µM | 66.97 ± 0.61% | 58.54 ± 0.55% | 55.6 ± 0.51% | 49.07 ± 0.45% | 179.76 ± 1.6231 µg/AAE |  | % inhibition of α-amylase enzyme ([1]; 200 µg/mL): 89.93% and 93%
3 | CC(=O)N(CN1CCCc2ccccc21)c1ccccc1 [SF10, N-((3,4-dihydroquinolin-1(2H)-yl)methyl)-N-phenylacetamide] |  | 23.45 ± 0.28% | 31.89 ± 0.21% | 40.77 ± 0.31% | 49.73 ± 0.19% | 47.81 ± 0.27 µg/mL (≈ 171 µM) | 196.1 ± 1.12 µg/mL | 100 ± 0.88% | 95 ± 0.93% | 80 ± 1.24% | 76 ± 1.2% | 24.8 ± 0.269 µM | 62.4 ± 0.65% | 58.5 ± 0.59% | 42.5 ± 0.54% | 33.84 ± 0.33% |  | no activity | 
4 | COc1ccc(NCN2CCCc3ccccc32)cc1 [SF12, N-((3,4-dihydroquinolin-1(2H)-yl)methyl)-4-methoxyaniline] |  | 11.24 ± 0.11% | 31.80 ± 0.42% | 54.10 ± 0.17% | 64.20 ± 0.31% | 39.33 ± 0.28 µg/mL (≈ 147 µM) | 128 ± 1.87 µg/mL | 87 ± 0.82% | 84 ± 0.87% | 57 ± 0.89% | 41 ± 0.86% | 35.1 ± 0.5 µM | 49.7 ± 0.61% | 32.3 ± 0.59% | 26.5 ± 0.578% | 23.2 ± 0.55% | 191.19 ± 1.1231 µg/AAE | 84.57 ± 1.9 µg/AAE | 
